Legend:
[1] = system: Plasma; assay: Anticoagulant potency in citreated human plasma assessed as prolongation of thromboplastin-induced prothrombin time at 2 uM by coagulometer; format: functional
[2] = system: Plasma; assay: Anticoagulant potency in citreated human plasma assessed as prolongation of thromboplastin-induced prothrombin time at 20 uM by coagulometer; format: functional
[3] = target: Prothrombin (Homo sapiens) (UniProt P00734); assay: Binding affinity to human thrombin assessed as concentration required to double fibrinogen clotting time by coagulometer

Row | Compound | Activity [3] [nM] | Activity [1] [s] | Activity [2] [s]
1 | Cc1cn(CC(C)(COP(=O)(O)OC[C@H]2O[C@@H](n3cc(C)c(=O)[nH]c3=O)C[C@@H]2OP(=O)(O)OC[C@H]2O[C@@H](n3cnc4c(=O)[nH]c(N)nc43)[C@H](O)[C@@H]2OP(=O)(O)OC[C@H]2O[C@@H](n3cnc4c(=O)[nH]c(N)nc43)[C@H](O)[C@@H]2OP(=O)(O)OC[C@H]2O[C@@H](n3cc(C)c(=O)[nH]c3=O)C[C@@H]2OP(=O)(O)OC[C@H]2O[C@@H](n3cnc4c(=O)[nH]c(N)nc43)[C@H](O)[C@@H]2OP(=O)(O)OC[C@H]2O[C@@H](n3cc(C)c(=O)[nH]c3=O)C[C@@H]2OP(=O)(O)OC[C@H]2O[C@@H](n3cnc4c(=O)[nH]c(N)nc43)[C@H](O)[C@@H]2OP(=O)(O)OC[C@H]2O[C@@H](n3cnc4c(=O)[nH]c(N)nc43)[C@H](O)[C@@H]2OP(=O)(O)OC[C@H]2O[C@@H](n3cc(C)c(=O)[nH]c3=O)C[C@@H]2OP(=O)(O)OC[C@H]2O[C@@H](n3cc(C)c(=O)[nH]c3=O)C[C@@H]2OP(=O)(O)OC[C@H]2O[C@@H](n3cnc4c(=O)[nH]c(N)nc43)[C@H](O)[C@@H]2OP(=O)(O)OC[C@H]2O[C@@H](n3cnc4c(=O)[nH]c(N)nc43)[C@H](O)[C@@H]2O)COP(=O)(O)O[C@H]2[C@@H](O)[C@H](n3cnc4c(=O)[nH]c(N)nc43)O[C@@H]2COP(=O)(O)O[C@H]2[C@@H](O)[C@H](n3cnc4c(=O)[nH]c(N)nc43)O[C@@H]2CO)c(=O)[nH]c1=O (stereo partly specified) | 238 | 14.3 | 35.15
2 | Cc1cn(CC(C)(COP(=O)(O)OC[C@H]2O[C@@H](n3cc(C)c(=O)[nH]c3=O)C[C@@H]2OP(=O)(O)OC[C@H]2O[C@@H](n3cnc4c(=O)[nH]c(N)nc43)[C@H](O)[C@@H]2OP(=O)(O)OC[C@H]2O[C@@H](n3cnc4c(=O)[nH]c(N)nc43)[C@H](O)[C@@H]2O)COP(=O)(O)O[C@H]2[C@@H](O)[C@H](n3cnc4c(=O)[nH]c(N)nc43)O[C@@H]2COP(=O)(O)O[C@H]2[C@@H](O)[C@H](n3cnc4c(=O)[nH]c(N)nc43)O[C@@H]2COP(=O)(O)O[C@H]2C[C@H](n3cc(C)c(=O)[nH]c3=O)O[C@@H]2COP(=O)(O)O[C@H]2[C@@H](O)[C@H](n3cnc4c(=O)[nH]c(N)nc43)O[C@@H]2COP(=O)(O)O[C@H]2C[C@H](n3cc(C)c(=O)[nH]c3=O)O[C@@H]2COP(=O)(O)O[C@H]2[C@@H](O)[C@H](n3cnc4c(=O)[nH]c(N)nc43)O[C@@H]2COP(=O)(O)O[C@H]2[C@@H](O)[C@H](n3cnc4c(=O)[nH]c(N)nc43)O[C@@H]2COP(=O)(O)O[C@H]2C[C@H](n3cc(C)c(=O)[nH]c3=O)O[C@@H]2COP(=O)(O)O[C@H]2C[C@H](n3cc(C)c(=O)[nH]c3=O)O[C@@H]2COP(=O)(O)O[C@H]2[C@@H](O)[C@H](n3cnc4c(=O)[nH]c(N)nc43)O[C@@H]2COP(=O)(O)O[C@H]2[C@@H](O)[C@H](n3cnc4c(=O)[nH]c(N)nc43)O[C@@H]2CO)c(=O)[nH]c1=O (stereo partly specified) | 78 | 18.07 | 44.83
3 | Cc1cn([C@H]2C[C@H](OP(=O)(O)OC[C@H]3O[C@@H](n4cnc5c(=O)[nH]c(N)nc54)[C@H](O)[C@@H]3OP(=O)(O)OC[C@H]3O[C@@H](n4cnc5c(=O)[nH]c(N)nc54)[C@H](O)[C@@H]3OP(=O)(O)OC[C@H]3O[C@@H](n4cc(C)c(=O)[nH]c4=O)C[C@@H]3OP(=O)(O)OC[C@H]3O[C@@H](n4cc(C)c(=O)[nH]c4=O)C[C@@H]3OP(=O)(O)OC[C@H]3O[C@@H](n4cnc5c(=O)[nH]c(N)nc54)[C@H](O)[C@@H]3OP(=O)(O)OC[C@H]3O[C@@H](n4cnc5c(=O)[nH]c(N)nc54)[C@H](O)[C@@H]3O)[C@@H](COP(=O)(O)O[C@H]3[C@@H](O)[C@H](n4cnc5c(=O)[nH]c(N)nc54)O[C@@H]3COP(=O)(O)O[C@H]3C[C@H](n4cc(C)c(=O)[nH]c4=O)O[C@@H]3COP(=O)(O)O[C@H]3[C@@H](O)[C@H](n4cnc5c(=O)[nH]c(N)nc54)O[C@@H]3COP(=O)(O)O[C@H]3[C@@H](O)[C@H](n4cnc5c(=O)[nH]c(N)nc54)O[C@@H]3COP(=O)(O)O[C@H]3C[C@H](n4cc(C)c(=O)[nH]c4=O)O[C@@H]3COP(=O)(O)O[C@H]3C[C@H](n4cc(C)c(=O)[nH]c4=O)O[C@@H]3COP(=O)(O)O[C@H]3[C@@H](O)[C@H](n4cnc5c(=O)[nH]c(N)nc54)O[C@@H]3COP(=O)(O)O[C@H]3[C@@H](O)[C@H](n4cnc5c(=O)[nH]c(N)nc54)O[C@@H]3CO)O2)c(=O)[nH]c1=O [THROMBIN APTAMER] | 175 | 22.6 | 53.68

Now from value to molecule, other results behind:

Row | Activity [3] [nM] | Compound | Activity [1] [s] | Activity [2] [s]
4 | 70 | Cc1cn(CC(C)(COP(=O)(O)OC[C@H]2O[C@@H](n3cnc4c(=O)[nH]c(N)nc43)[C@H](O)[C@@H]2OP(=O)(O)OC[C@H]2O[C@@H](n3cc(C)c(=O)[nH]c3=O)C[C@@H]2OP(=O)(O)OC[C@H]2O[C@@H](n3cnc4c(=O)[nH]c(N)nc43)[C@H](O)[C@@H]2OP(=O)(O)OC[C@H]2O[C@@H](n3cnc4c(=O)[nH]c(N)nc43)[C@H](O)[C@@H]2OP(=O)(O)OC[C@H]2O[C@@H](n3cc(C)c(=O)[nH]c3=O)C[C@@H]2OP(=O)(O)OC[C@H]2O[C@@H](n3cc(C)c(=O)[nH]c3=O)C[C@@H]2OP(=O)(O)OC[C@H]2O[C@@H](n3cnc4c(=O)[nH]c(N)nc43)[C@H](O)[C@@H]2OP(=O)(O)OC[C@H]2O[C@@H](n3cnc4c(=O)[nH]c(N)nc43)[C@H](O)[C@@H]2O)COP(=O)(O)O[C@H]2[C@@H](O)[C@H](n3cnc4c(=O)[nH]c(N)nc43)O[C@@H]2COP(=O)(O)O[C@H]2[C@@H](O)[C@H](n3cnc4c(=O)[nH]c(N)nc43)O[C@@H]2COP(=O)(O)O[C@H]2C[C@H](n3cc(C)c(=O)[nH]c3=O)O[C@@H]2COP(=O)(O)O[C@H]2C[C@H](n3cc(C)c(=O)[nH]c3=O)O[C@@H]2COP(=O)(O)O[C@H]2[C@@H](O)[C@H](n3cnc4c(=O)[nH]c(N)nc43)O[C@@H]2COP(=O)(O)O[C@H]2[C@@H](O)[C@H](n3cnc4c(=O)[nH]c(N)nc43)O[C@@H]2CO)c(=O)[nH]c1=O (stereo partly specified) | 24.67 | 60.2
5 | 250 | Cc1cn(CC(C)(COP(=O)(O)OC[C@H]2O[C@@H](n3cnc4c(=O)[nH]c(N)nc43)[C@H](O)[C@@H]2OP(=O)(O)OC[C@H]2O[C@@H](n3cnc4c(=O)[nH]c(N)nc43)[C@H](O)[C@@H]2OP(=O)(O)OC[C@H]2O[C@@H](n3cc(C)c(=O)[nH]c3=O)C[C@@H]2OP(=O)(O)OC[C@H]2O[C@@H](n3cnc4c(=O)[nH]c(N)nc43)[C@H](O)[C@@H]2OP(=O)(O)OC[C@H]2O[C@@H](n3cc(C)c(=O)[nH]c3=O)C[C@@H]2OP(=O)(O)OC[C@H]2O[C@@H](n3cnc4c(=O)[nH]c(N)nc43)[C@H](O)[C@@H]2OP(=O)(O)OC[C@H]2O[C@@H](n3cnc4c(=O)[nH]c(N)nc43)[C@H](O)[C@@H]2OP(=O)(O)OC[C@H]2O[C@@H](n3cc(C)c(=O)[nH]c3=O)C[C@@H]2OP(=O)(O)OC[C@H]2O[C@@H](n3cc(C)c(=O)[nH]c3=O)C[C@@H]2OP(=O)(O)OC[C@H]2O[C@@H](n3cnc4c(=O)[nH]c(N)nc43)[C@H](O)[C@@H]2OP(=O)(O)OC[C@H]2O[C@@H](n3cnc4c(=O)[nH]c(N)nc43)[C@H](O)[C@@H]2O)COP(=O)(O)O[C@H]2C[C@H](n3cc(C)c(=O)[nH]c3=O)O[C@@H]2COP(=O)(O)O[C@H]2[C@@H](O)[C@H](n3cnc4c(=O)[nH]c(N)nc43)O[C@@H]2COP(=O)(O)O[C@H]2[C@@H](O)[C@H](n3cnc4c(=O)[nH]c(N)nc43)O[C@@H]2CO)c(=O)[nH]c1=O (stereo partly specified) | 14.5 | 32.28
6 | 100 | Cc1cn(CC(C)(COP(=O)(O)OC[C@H]2O[C@@H](n3cnc4c(=O)[nH]c(N)nc43)[C@H](O)[C@@H]2OP(=O)(O)OC[C@H]2O[C@@H](n3cnc4c(=O)[nH]c(N)nc43)[C@H](O)[C@@H]2O)COP(=O)(O)O[C@H]2C[C@H](n3cc(C)c(=O)[nH]c3=O)O[C@@H]2COP(=O)(O)O[C@H]2[C@@H](O)[C@H](n3cnc4c(=O)[nH]c(N)nc43)O[C@@H]2COP(=O)(O)O[C@H]2[C@@H](O)[C@H](n3cnc4c(=O)[nH]c(N)nc43)O[C@@H]2COP(=O)(O)O[C@H]2C[C@H](n3cc(C)c(=O)[nH]c3=O)O[C@@H]2COP(=O)(O)O[C@H]2[C@@H](O)[C@H](n3cnc4c(=O)[nH]c(N)nc43)O[C@@H]2COP(=O)(O)O[C@H]2C[C@H](n3cc(C)c(=O)[nH]c3=O)O[C@@H]2COP(=O)(O)O[C@H]2[C@@H](O)[C@H](n3cnc4c(=O)[nH]c(N)nc43)O[C@@H]2COP(=O)(O)O[C@H]2[C@@H](O)[C@H](n3cnc4c(=O)[nH]c(N)nc43)O[C@@H]2COP(=O)(O)O[C@H]2C[C@H](n3cc(C)c(=O)[nH]c3=O)O[C@@H]2COP(=O)(O)O[C@H]2C[C@H](n3cc(C)c(=O)[nH]c3=O)O[C@@H]2COP(=O)(O)O[C@H]2[C@@H](O)[C@H](n3cnc4c(=O)[nH]c(N)nc43)O[C@@H]2COP(=O)(O)O[C@H]2[C@@H](O)[C@H](n3cnc4c(=O)[nH]c(N)nc43)O[C@@H]2CO)c(=O)[nH]c1=O (stereo partly specified) | 17.5 | 46.97
7 | 210 | Cc1cn(CC(C)(COP(=O)(O)OC[C@H]2O[C@@H](n3cnc4c(=O)[nH]c(N)nc43)[C@H](O)[C@@H]2OP(=O)(O)OC[C@H]2O[C@@H](n3cnc4c(=O)[nH]c(N)nc43)[C@H](O)[C@@H]2OP(=O)(O)OC[C@H]2O[C@@H](n3cc(C)c(=O)[nH]c3=O)C[C@@H]2OP(=O)(O)OC[C@H]2O[C@@H](n3cc(C)c(=O)[nH]c3=O)C[C@@H]2OP(=O)(O)OC[C@H]2O[C@@H](n3cnc4c(=O)[nH]c(N)nc43)[C@H](O)[C@@H]2OP(=O)(O)OC[C@H]2O[C@@H](n3cnc4c(=O)[nH]c(N)nc43)[C@H](O)[C@@H]2O)COP(=O)(O)O[C@H]2[C@@H](O)[C@H](n3cnc4c(=O)[nH]c(N)nc43)O[C@@H]2COP(=O)(O)O[C@H]2C[C@H](n3cc(C)c(=O)[nH]c3=O)O[C@@H]2COP(=O)(O)O[C@H]2[C@@H](O)[C@H](n3cnc4c(=O)[nH]c(N)nc43)O[C@@H]2COP(=O)(O)O[C@H]2[C@@H](O)[C@H](n3cnc4c(=O)[nH]c(N)nc43)O[C@@H]2COP(=O)(O)O[C@H]2C[C@H](n3cc(C)c(=O)[nH]c3=O)O[C@@H]2COP(=O)(O)O[C@H]2C[C@H](n3cc(C)c(=O)[nH]c3=O)O[C@@H]2COP(=O)(O)O[C@H]2[C@@H](O)[C@H](n3cnc4c(=O)[nH]c(N)nc43)O[C@@H]2COP(=O)(O)O[C@H]2[C@@H](O)[C@H](n3cnc4c(=O)[nH]c(N)nc43)O[C@@H]2CO)c(=O)[nH]c1=O (stereo partly specified) | 13.23 | 34.65
